Measured values as given in PubChem BioAssay AID2060897 (Molecular Pharmacology Branch, DTP, NCI, 2025).

Tested on: 966289-007-R4-J1-PDC complex spheroid viability
Assay: Anticancer human tumor 966289-007-R4-J1-PDC patient-derived pancreatic adenocarcinoma cell line growth inhibition [RAS]
Details: for IC50: curve of first compound; for viability, T/C: stronger effect = lower value; active means viability on the fitted dose curve at most 10% of control; inactive means the rest
How it was run: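 Multi-cell-type spheroids: tumor cells plus HUVEC endothelial cells and mesenchymal stem cells. RAS-pathway inhibitors were combined with targeted agents, each dosed in half-log steps down from clinical Cmax, or from 10 microM when Cmax was unknown.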
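Further: spheroids exposed to agents for one week before readout.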
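Wherever viability, T/C is given: percent viability relative to DMSO vehicle control wells as 100%.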

CC1(O)CCCC1n1c(=O)c(C(F)F)cc2cnc(NC3CCN(S(C)(=O)=O)CC3)nc21 (configuration not stated) + CCn1c(-c2cccnc2C(C)OC)c2c3cc(ccc31)N1CCOC(CC(NC(=O)C(C(C)C)N(C)C(=O)C3(F)CCN(C(=O)C#CC(C)(C)N(C)C)CC3)C(=O)N3CCCC(N3)C(=O)OCC(C)(C)C2)C1
155 nM: IC50 (second compound 0.003 µM) | IC50 (second compound 0.00949 µM)
126 nM: IC50 (second compound 0.000949 µM)
107 nM: IC50 (second compound 0.3 µM)
106 nM: IC50 (second compound 0.0949 µM)
81.7 nM: IC50 (second compound 0.03 µM)
inactive: viability, T/C (second compound 0.000949 µM, first compound 0.0316 µM) 102% | viability, T/C (second compound 0.000949 µM, first compound 0.1 µM) 57.9% | viability, T/C (second compound 0.000949 µM, first compound 0.316 µM) 21.9% | viability, T/C (second compound 0.000949 µM, first compound 1 µM) 24.9% | viability, T/C (second compound 0.000949 µM, first compound 3.16 µM) 20.7% | viability, T/C (second compound 0.000949 µM, first compound 10 µM) 3.78% | viability, T/C (second compound 0.003 µM, first compound 0.0316 µM) 115% | viability, T/C (second compound 0.003 µM, first compound 0.1 µM) 67.3% | viability, T/C (second compound 0.003 µM, first compound 0.316 µM) 21.2% | viability, T/C (second compound 0.003 µM, first compound 1 µM) 22.8% | viability, T/C (second compound 0.003 µM, first compound 3.16 µM) 23.8% | viability, T/C (second compound 0.003 µM, first compound 10 µM) 4.11% | viability, T/C (second compound 0.00949 µM, first compound 0.0316 µM) 83.1% | viability, T/C (second compound 0.00949 µM, first compound 0.1 µM) 68.5% | viability, T/C (second compound 0.00949 µM, first compound 0.316 µM) 19.7% | viability, T/C (second compound 0.00949 µM, first compound 1 µM) 18.9% | viability, T/C (second compound 0.00949 µM, first compound 3.16 µM) 23.4% | viability, T/C (second compound 0.00949 µM, first compound 10 µM) 2.04% | viability, T/C (second compound 0.03 µM, first compound 0.0316 µM) 91.6% | viability, T/C (second compound 0.03 µM, first compound 0.1 µM) 41.3% | viability, T/C (second compound 0.03 µM, first compound 0.316 µM) 18.8% | viability, T/C (second compound 0.03 µM, first compound 1 µM) 21.4% | viability, T/C (second compound 0.03 µM, first compound 3.16 µM) 24.4% | viability, T/C (second compound 0.03 µM, first compound 10 µM) 1.8% | viability, T/C (second compound 0.0949 µM, first compound 0.0316 µM) 99.3% | viability, T/C (second compound 0.0949 µM, first compound 0.1 µM) 51.8% | viability, T/C (second compound 0.0949 µM, first compound 0.316 µM) 16.9% | viability, T/C (second compound 0.0949 µM, first compound 1 µM) 21.4% | viability, T/C (second compound 0.0949 µM, first compound 3.16 µM) 26% | viability, T/C (second compound 0.0949 µM, first compound 10 µM) 1.18% | viability, T/C (second compound 0.3 µM, first compound 0.0316 µM) 64.1% | viability, T/C (second compound 0.3 µM, first compound 0.1 µM) 52.2% | viability, T/C (second compound 0.3 µM, first compound 0.316 µM) 16% | viability, T/C (second compound 0.3 µM, first compound 1 µM) 23.2% | viability, T/C (second compound 0.3 µM, first compound 3.16 µM) 24.1% | viability, T/C (second compound 0.3 µM, first compound 10 µM) 1.49%
